# Results from ChEMBL document CHEMBL1201862, “PubChem BioAssay data set” (2004).
#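 Cells were grown in 96-well plates and exposed to each compound for 48 hours at five concentrations; endpoints were interpolated linearly between bracketing concentrations, or set to the highest concentration if not reached. GI50 marks 50% less growth.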 Activity calls are given as the source filed them. Rule as the data show it: active = GI50 up to about 1.1 µM and inactive = higher.
# Experiments:
# Experiment in all cases: inhibition of tumour cell growth, NCI panel, 48 h
# [1] = test system: IGROV-1
# [2] = test system: ACHN
# [3] = test system: OVCAR-4
# [4] = test system: UO-31
# [5] = test system: UACC-257
# [6] = test system: SK-MEL-2
# [7] = test system: NCI-H23
# [8] = test system: Malme-3M
# [9] = test system: COLO 205
# [10] = test system: SW-620
# [11] = test system: HCC 2998
# [12] = test system: SF-539
# [13] = test system: SF-268
# [14] = test system: RPMI-8226
# [15] = test system: SNB-75
# [16] = test system: SK-MEL-28
# [17] = test system: DLD-1
# [18] = test system: 786-0
# [19] = test system: LOX IMVI
# [20] = test system: HL-60
# [21] = test system: OVCAR-8
# [22] = test system: M19-MEL
# [23] = test system: HOP-62
# [24] = test system: SK-MEL-5
# [25] = test system: KM-20L2
# [26] = test system: EKVX
# [27] = test system: A498
# [28] = test system: NCI-H226
# [29] = test system: A549
# [30] = test system: SN12C
# [31] = test system: NCI-H460
# [32] = test system: SNB-19
# [33] = test system: RXF 393
# [34] = test system: DMS-114
# [35] = test system: DMS-273
# [36] = test system: XF498
# [37] = test system: M14
# [38] = test system: UACC-62
# [39] = test system: OVCAR-3
# [40] = test system: HCT-116
# [41] = test system: SF-295
# [42] = test system: HT-29
# [43] = test system: U-251
# [44] = test system: SR
# [45] = test system: LXFL 529
# [46] = test system: TK-10
# [47] = test system: HCT-15
# [48] = test system: HOP-92
# [49] = test system: SK-OV-3
# [50] = test system: SNB-78
# [51] = test system: KM12
# [52] = test system: CCRF-CEM
# [53] = test system: MOLT-4
# [54] = test system: K562
# [55] = test system: NCI-H522
# [56] = test system: CAKI-1
# [57] = test system: OVCAR-5
# [58] = test system: HOP-18
structure (smiles),measurement,setting,value
COC(=O)CC1NC(=O)C1C1(C)OCCO1 (stereo not drawn),GI50,[1],> 100 µM (inactive)
same,GI50,[2],> 100 µM (inactive)
same,GI50,[3],> 100 µM (inactive)
same,GI50,[4],> 100 µM (inactive)
same,GI50,[5],> 100 µM (inactive)
same,GI50,[6],> 100 µM (inactive)
same,GI50,[7],> 100 µM (inactive)
same,GI50,[8],> 100 µM (inactive)
same,GI50,[9],> 100 µM (inactive)
same,GI50,[10],> 100 µM (inactive)
same,GI50,[11],> 100 µM (inactive)
same,GI50,[12],> 100 µM (inactive)
same,GI50,[13],> 100 µM (inactive)
same,GI50,[14],> 100 µM (inactive)
same,GI50,[15],28 µM (inactive)
same,GI50,[16],> 100 µM (inactive)
same,GI50,[17],> 100 µM (inactive)
same,GI50,[18],> 100 µM (inactive)
same,GI50,[19],> 100 µM (inactive)
same,GI50,[20],> 100 µM (inactive)
same,GI50,[21],> 100 µM (inactive)
same,GI50,[22],> 100 µM (inactive)
same,GI50,[23],> 100 µM (inactive)
same,GI50,[24],> 100 µM (inactive)
same,GI50,[25],> 100 µM (inactive)
same,GI50,[26],> 100 µM (inactive)
same,GI50,[27],> 100 µM (inactive)
same,GI50,[28],> 100 µM (inactive)
same,GI50,[29],> 100 µM (inactive)
same,GI50,[30],> 100 µM (inactive)
same,GI50,[31],> 100 µM (inactive)
same,GI50,[32],> 100 µM (inactive)
same,GI50,[33],> 100 µM (inactive)
same,GI50,[34],> 100 µM (inactive)
same,GI50,[35],> 100 µM (inactive)
same,GI50,[36],> 100 µM (inactive)
same,GI50,[37],> 100 µM (inactive)
same,GI50,[38],> 100 µM (inactive)
same,GI50,[39],> 100 µM (inactive)
same,GI50,[40],> 100 µM (inactive)
same,GI50,[41],> 100 µM (inactive)
same,GI50,[42],> 100 µM (inactive)
same,GI50,[43],> 100 µM (inactive)
same,GI50,[44],> 100 µM (inactive)
same,GI50,[45],> 100 µM (inactive)
same,GI50,[46],> 100 µM (inactive)
same,GI50,[47],> 100 µM
O=C1OC(Cl)C(N=P(c2ccccc2)(c2ccccc2)c2ccccc2)=C1Cl (stereo not drawn),GI50,[1],> 100 µM (inactive)
same,GI50,[48],> 100 µM (inactive)
same,GI50,[3],> 100 µM (inactive)
same,GI50,[4],> 100 µM (inactive)
same,GI50,[5],> 100 µM (inactive)
same,GI50,[6],> 100 µM (inactive)
same,GI50,[7],> 100 µM (inactive)
same,GI50,[8],> 100 µM (inactive)
same,GI50,[9],> 100 µM (inactive)
same,GI50,[10],> 100 µM (inactive)
same,GI50,[11],> 100 µM (inactive)
same,GI50,[12],93.3 µM (inactive)
same,GI50,[13],> 100 µM (inactive)
same,GI50,[14],> 100 µM (inactive)
same,GI50,[49],> 100 µM (inactive)
same,GI50,[15],36.4 µM (inactive)
same,GI50,[16],> 100 µM (inactive)
same,GI50,[17],> 100 µM (inactive)
same,GI50,[18],80.4 µM (inactive)
same,GI50,[19],> 100 µM (inactive)
same,GI50,[50],37.9 µM (inactive)
same,GI50,[20],> 100 µM (inactive)
same,GI50,[21],> 100 µM (inactive)
same,GI50,[51],> 100 µM (inactive)
same,GI50,[22],> 100 µM (inactive)
same,GI50,[23],> 100 µM (inactive)
same,GI50,[24],> 100 µM (inactive)
same,GI50,[52],> 100 µM (inactive)
same,GI50,[53],> 100 µM (inactive)
same,GI50,[26],> 100 µM (inactive)
same,GI50,[27],> 100 µM (inactive)
same,GI50,[54],> 100 µM (inactive)
same,GI50,[28],> 100 µM (inactive)
same,GI50,[29],> 100 µM (inactive)
same,GI50,[30],> 100 µM (inactive)
same,GI50,[32],> 100 µM (inactive)
same,GI50,[34],> 100 µM (inactive)
same,GI50,[55],> 100 µM (inactive)
same,GI50,[35],> 100 µM (inactive)
same,GI50,[36],> 100 µM (inactive)
same,GI50,[37],> 100 µM (inactive)
same,GI50,[38],> 100 µM (inactive)
same,GI50,[39],> 100 µM (inactive)
same,GI50,[40],> 100 µM (inactive)
same,GI50,[56],> 100 µM (inactive)
same,GI50,[41],> 100 µM (inactive)
same,GI50,[42],> 100 µM (inactive)
same,GI50,[44],> 100 µM (inactive)
same,GI50,[45],> 100 µM (inactive)
same,GI50,[46],> 100 µM (inactive)
CSC(=S)N(C)NC(=O)c1cccc(C(=O)NN(C)C(=S)SC)n1,GI50,[1],8.2 µM (inactive)
same,GI50,[48],21.5 µM (inactive)
same,GI50,[2],> 100 µM (inactive)
same,GI50,[3],10.3 µM (inactive)
same,GI50,[5],7.48 µM (inactive)
same,GI50,[7],24.2 µM (inactive)
same,GI50,[9],> 100 µM (inactive)
same,GI50,[10],32.7 µM (inactive)
same,GI50,[12],24.5 µM (inactive)
same,GI50,[13],6.1 µM (inactive)
same,GI50,[14],10.3 µM (inactive)
same,GI50,[15],34.3 µM (inactive)
same,GI50,[16],15.4 µM (inactive)
same,GI50,[17],27.2 µM (inactive)
same,GI50,[18],19.4 µM (inactive)
same,GI50,[19],31.4 µM (inactive)
same,GI50,[50],27.7 µM (inactive)
same,GI50,[20],5.7 µM (inactive)
same,GI50,[21],21.8 µM (inactive)
same,GI50,[51],2.89 µM (inactive)
same,GI50,[22],31 µM (inactive)
same,GI50,[23],17.1 µM (inactive)
same,GI50,[24],15.7 µM (inactive)
same,GI50,[25],4.07 µM (inactive)
same,GI50,[52],2.96 µM (inactive)
same,GI50,[53],4.33 µM (inactive)
same,GI50,[57],4.88 µM (inactive)
same,GI50,[26],16.1 µM (inactive)
same,GI50,[27],28.2 µM (inactive)
same,GI50,[54],15.6 µM (inactive)
same,GI50,[28],25.9 µM (inactive)
same,GI50,[58],78.5 µM (inactive)
same,GI50,[29],14.8 µM (inactive)
same,GI50,[30],22.2 µM (inactive)
same,GI50,[31],6.11 µM (inactive)
same,GI50,[32],26.4 µM (inactive)
same,GI50,[33],25.7 µM (inactive)
same,GI50,[34],1.36 µM (inactive)
same,GI50,[55],15.2 µM (inactive)
same,GI50,[35],14.1 µM (inactive)
same,GI50,[37],14.6 µM (inactive)
same,GI50,[38],14.3 µM (inactive)
same,GI50,[40],36.3 µM (inactive)
same,GI50,[41],3.44 µM (inactive)
same,GI50,[42],3.06 µM (inactive)
same,GI50,[43],18.6 µM (inactive)
same,GI50,[44],4.97 µM (inactive)
same,GI50,[45],10.4 µM (inactive)
same,GI50,[47],25.9 µM
O=C1CC2CC3OC3[C@H]3c4cc5c(cc4C(=O)N1C23)OCO5 (stereo partly drawn),GI50,[1],> 100 µM (inactive)
same,GI50,[48],> 100 µM (inactive)
same,GI50,[2],> 100 µM (inactive)
same,GI50,[3],> 100 µM (inactive)
same,GI50,[4],> 100 µM (inactive)
same,GI50,[6],> 100 µM (inactive)
same,GI50,[8],> 100 µM (inactive)
same,GI50,[9],> 100 µM (inactive)
same,GI50,[10],> 100 µM (inactive)
same,GI50,[11],> 100 µM (inactive)
same,GI50,[12],> 100 µM (inactive)
same,GI50,[13],> 100 µM (inactive)
same,GI50,[14],> 100 µM (inactive)
same,GI50,[49],> 100 µM (inactive)
same,GI50,[16],> 100 µM (inactive)
same,GI50,[19],> 100 µM (inactive)
same,GI50,[20],> 100 µM (inactive)
same,GI50,[21],> 100 µM (inactive)
same,GI50,[51],> 100 µM (inactive)
same,GI50,[22],> 100 µM (inactive)
same,GI50,[23],> 100 µM (inactive)
same,GI50,[25],> 100 µM (inactive)
same,GI50,[52],> 100 µM (inactive)
same,GI50,[53],> 100 µM (inactive)
same,GI50,[57],> 100 µM (inactive)
same,GI50,[26],> 100 µM (inactive)
same,GI50,[54],> 100 µM (inactive)
same,GI50,[28],> 100 µM (inactive)
same,GI50,[29],> 100 µM (inactive)
same,GI50,[30],> 100 µM (inactive)
same,GI50,[31],> 100 µM (inactive)
same,GI50,[32],> 100 µM (inactive)
same,GI50,[34],> 100 µM (inactive)
same,GI50,[55],> 100 µM (inactive)
same,GI50,[35],> 100 µM (inactive)
same,GI50,[36],> 100 µM (inactive)
same,GI50,[37],> 100 µM (inactive)
same,GI50,[38],> 100 µM (inactive)
same,GI50,[39],> 100 µM (inactive)
same,GI50,[40],> 100 µM (inactive)
same,GI50,[56],> 100 µM (inactive)
same,GI50,[41],> 100 µM (inactive)
same,GI50,[42],> 100 µM (inactive)
same,GI50,[44],> 100 µM (inactive)
same,GI50,[45],> 100 µM (inactive)
same,GI50,[46],> 100 µM (inactive)
same,GI50,[47],> 100 µM
